Reference: ChEMBL document CHEMBL1201862, “PubChem BioAssay data set” (2004)
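Grown in 96-well plates, cells were treated for 48 hours with each compound at five concentrations. Insufficient inhibition: endpoint recorded as highest concentration tested. GI50: concentration for 50% inhibition of growth.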 The source made the active and inactive calls. No stated cut-off is given here; in the data, active = GI50 up to about 1.1 µM and inactive = higher.

Tests used:
Test in all cases: NCI tumour cell line growth inhibition, 48 h
[1] = tested on: A498
[2] = tested on: A549
[3] = tested on: CAKI-1
[4] = tested on: CCRF-CEM
[5] = tested on: EKVX
[6] = tested on: K562
[7] = tested on: LOX IMVI
[8] = tested on: M14
[9] = tested on: MDA-MB-231
[10] = tested on: MOLT-4
[11] = tested on: NCI-H226
[12] = tested on: OVCAR-8
[13] = tested on: SK-OV-3
[14] = tested on: SNB-75
[15] = tested on: SW-620
[16] = tested on: T47D
[17] = tested on: TK-10
[18] = tested on: U-251
[19] = tested on: ACHN
[20] = tested on: NCI-H460

Measured: GI50

CC(NC(=O)CNP(=O)(c1ccccc1)c1ccccc1)C(=O)NC(Cc1ccccc1)C(=O)OCc1ccccc1 (centres undefined)
inactive: [1] > 100 µM | [2] > 100 µM | [3] > 100 µM | [4] > 10 µM | [5] 24.1 µM | [6] > 10 µM | [7] 26.7 µM | [8] 49.7 µM | [9] 35.6 µM | [10] 20.5 µM | [11] > 100 µM | [12] > 100 µM | [13] 21 µM | [14] 19.6 µM | [15] 45.7 µM | [16] > 100 µM | [17] > 100 µM | [18] 23.4 µM

CC(=O)[C@@H]1[C@@H](OC(=O)CCC(C)COC2OC(CO)C(O)C(O)C2O)C[C@H]2[C@@H]3CC=C4C[C@@H](OC5OC(CO)C(OC6OC(C)C(O)C(O)C6O)C(O)C5OC5OC(C)C(O)C(O)C5O)CC[C@]4(C)[C@H]3CC[C@]12C (some centres undefined)
inactive: [1] > 100 µM | [2] > 100 µM | [19] > 100 µM | [3] > 100 µM | [4] > 100 µM | [5] > 100 µM | [6] > 100 µM | [7] > 100 µM | [8] > 100 µM | [9] > 100 µM | [10] > 100 µM | [20] > 100 µM | [12] > 100 µM | [13] > 100 µM | [14] > 100 µM | [15] 64.7 µM | [16] > 100 µM | [17] > 100 µM | [18] > 100 µM

Cc1c2c(n(Cc3ccccn3)c1C)NN=C(C#N)S2(=O)=O
inactive: [1] > 100 µM | [2] > 100 µM | [19] > 100 µM | [3] > 100 µM | [5] > 100 µM | [7] > 100 µM | [8] > 100 µM | [9] > 100 µM | [10] > 100 µM | [11] > 100 µM | [20] > 100 µM | [12] > 100 µM | [13] > 100 µM | [14] > 100 µM | [15] > 100 µM | [16] > 100 µM | [17] > 100 µM | [18] > 100 µM

CCCCC/C=C\C=C\CCCCCCCCC(=O)OC
inactive: [1] > 100 µM | [2] > 100 µM | [19] > 100 µM | [3] > 100 µM | [5] > 100 µM | [6] > 100 µM | [7] 29.8 µM | [8] > 100 µM | [9] > 100 µM | [10] > 100 µM | [11] > 100 µM | [20] > 100 µM | [12] > 100 µM | [13] > 100 µM | [14] > 100 µM | [15] > 100 µM | [16] > 100 µM | [17] > 100 µM | [18] > 100 µM
